Test results: publication PMC5267425, “Identification of small molecule modulators of HIV-1 Tat and Rev protein accumulation” (Retrovirology, 2017)
Values joined by “and” are separate entries in the source; they are usually repeats but may differ in a detail not shown here. Equal values may be shown once.

System: alternative splicing of host transcripts in HeLa rtTA HIV∆Mls cells
Assay: RT-PCR of host alternative splicing events (PSI), capillary electrophoresis
Format: cell-based
Parameters: PSI ZNF827_1 / PSI RAN_1 / PSI SEC24B_1 / PSI SMN2_1 / PSI TRIM37_1 / PSI RPS24_1 / PSI PDCL_1 / PSI SMN2_2 / PSI SETD5_1 / PSI RAI14_1 / PSI TPM1_1 / PSI SPAG9_1 / PSI POLDIP3_1 / PSI SRPK2_1 / PSI POMT1_1: concentration or dose not given beside the values
Settings: for DPSI TPM1_1: P Value 0.330
Method: To assess the effect of compounds on expression/alternative splicing of cellular RNA, two approaches were used. For both, total RNA was prepared from DMSO or compound-treated cells. In the first assay, samples were assayed by medium throughput RT-PCR to determine the inclusion levels of alternatively spliced exons and splice sites located in 73 selected events. 73 primer sets containing a fluorescently (5-FAM) labeled primer for each, were used in RT-PCR. PCR products generated were denatured in formamide and quantified using ABI Prism capillary sequencer (Life Technologies). The fragment analysis was performed on the PeakScanner software (Life Technologies) in batch mode and automated using custom scripts written in Python. The inclusion level of each exon was calculated as the amount of transcripts carrying the alternative exon relative to the total amount of all transcripts detected in the PCR reaction and results are summarized for compound-treatment in comparison to DMSO treatment. In the second assay, extracted RNA was processed using the Illumina TruSeq RNA Sample Preparation Kit (Illumina) according to the manufacturer’s instructions. The cDNA library generated was validated (passed quality control on a Bioanalyzer 1000 DNA chip (Agilent)), normalized and pooled for cluster generation. cDNA libraries were sequenced on the Illumina HiSeq 2500 (paired-end, 125 bp) with version 4 chemistry following manufacturer’s protocols. The full human genome and transcriptomic sequences were downloaded from the UCSC Genome Browser (genome.ucsc.edu) database and Ensembl (www.ensembl.org), respectively, as described by Irimia et al.. Exon annotations and genomic coordinates for alternative splicing (AS) analysis were derived from tables downloaded from the UCSC Genome Browser database. To determine gene expression (GE) or alternative splicing (AS) changes in an unbiased way, the effective number of unique mappable positions in each transcript (i.e. the effective length) was determined by aligning sequences with unique transcriptomic alignment to the human genome using Bowtie. Reads with one unique genomic alignment were then aligned against the canonical transcriptome and, for each transcript, the number of reads with one unique transcriptomic alignment were counted. The expression level of genes was quantified as corrected ‘reads per kilobase of exon model per million mapped reads’ (cRPKM), a widely used metric to estimate gene expression levels. The expression cutoff was 0.5 cRPKM, corresponding to the transcript of the gene being present if there were ≥10 reads that mapped uniquely to a single genomic locus. Approximately 19,847 Ensembl annotated protein-coding genes were compared to create a gene list of differentially expressed genes. Genes were considered differentially expressed if fold changes in cRPKM was ≥2 in compound-treated versus DMSO-treated samples.

[1] = of 70 AS events, 5193892 vs DMSO, HeLa rtTA-HIV-DMls cells

COc1ccc(C=NNC(=O)c2ccccc2O)cc1O [Compound 892, 2-hydroxy-N′-(3-hydroxy-4-methoxybenzylidene)benzohydrazide]
PSI NUMB_2 (chr14:72815742-72815885, HeLa rtTA-HIV-DMls cells, replicates 25, 26, 27): 26.00
DPSI NUMB_2 (chr14:72815742-72815885, mean PSI 5193892 minus DMSO, n=3, P Value 0.004): 8.67%
PSI NUMB_2 (chr14:72820542-72820835, HeLa rtTA-HIV-DMls cells, replicates 25, 26, 27): 82.00 and 96.00 and 95.00
DPSI NUMB_2 (chr14:72820542-72820835, mean PSI 5193892 minus DMSO, n=3, P Value 0.525): 4.67%
PSI MARK3_1 (chr14:103034592-103034618, HeLa rtTA-HIV-DMls cells, replicates 25, 26, 27): 20.00 and 13.00 and 16.00
DPSI MARK3_1 (chr14:103034592-103034618, mean PSI 5193892 minus DMSO, n=3, P Value 0.734): 1.00%
PSI MARK3_1 (chr14:103036246-103036290, HeLa rtTA-HIV-DMls cells, replicates 25, 26, 27): 11.00 (2×) and 9.00
PSI TPM1_1 (chr15:61140450-61140525, HeLa rtTA-HIV-DMls cells, replicates 25, 26, 27): 84.00 and 73.00 and 67.00
DPSI TPM1_1 (chr15:61140450-61140525, mean PSI 5193892 minus DMSO, n=3): -6.67%
PSI TPM1_1 (chr15:61140965-61141040, HeLa rtTA-HIV-DMls cells, replicates 25, 26, 27): 16.00 and 27.00 and 33.00
DPSI TPM1_1 (chr15:61140965-61141040, mean PSI 5193892 minus DMSO, n=3): 6.67%
PSI CA12_1 (chr15:61406400-61406485, HeLa rtTA-HIV-DMls cells, replicates 25, 26, 27): 96.00 and 100.00 and 95.00
DPSI CA12_1 (chr15:61406400-61406485, mean PSI 5193892 minus DMSO, n=3, P Value 0.851): 0.33%
PSI CA12_1 (chr15:61407349-61407382, HeLa rtTA-HIV-DMls cells, replicates 25, 26, 27): 15.00 and 7.00 and 4.00
PSI MRIP_1 (chr17:17024646-17024708, HeLa rtTA-HIV-DMls cells, replicates 25, 26, 27): 32.00 and 31.00 (2×)
DPSI MRIP_1 (chr17:17024646-17024708, mean PSI 5193892 minus DMSO, n=3, P Value 0.101): 1.00%
PSI ATP6V0A1_1 (chr17:37919833-37920004, HeLa rtTA-HIV-DMls cells, replicates 25, 26, 27): 81.00 and 86.00 and 77.00
DPSI ATP6V0A1_1 (chr17:37919833-37920004, mean PSI 5193892 minus DMSO, n=3, P Value 0.331): 3.33%
PSI SPAG9_1 (chr17:46408223-46408261, HeLa rtTA-HIV-DMls cells, replicates 25, 26, 27): 25.00 and 17.00 and 16.00
PSI TRIM37_1 (chr17:54433741-54433857, HeLa rtTA-HIV-DMls cells, replicates 25, 26, 27): 69.00 and 71.00 and 68.00
DPSI TRIM37_1 (chr17:54433741-54433857, mean PSI 5193892 minus DMSO, n=3, P Value 0.063): -4.33%
PSI FAM104A_1 (chr17:68720412-68720474, HeLa rtTA-HIV-DMls cells, replicates 25, 26, 27): 15.00 and 20.00 and 18.00
DPSI FAM104A_1 (chr17:68720412-68720474, mean PSI 5193892 minus DMSO, n=3, P Value 0.523): -2.33%
PSI EXOC7_1 (chr17:71598005-71598035, HeLa rtTA-HIV-DMls cells, replicates 25, 26, 27): 35.00 and 23.00 and 25.00
DPSI EXOC7_1 (chr17:71598005-71598035, mean PSI 5193892 minus DMSO, n=3, P Value 0.709): 2.67%
PSI EXOC7_1 (chr17:71598819-71598911, HeLa rtTA-HIV-DMls cells, replicates 25, 26, 27): 27.00
DPSI EXOC7_1 (chr17:71598819-71598911, mean PSI 5193892 minus DMSO, n=3, P Value 0.003): 5.67%
PSI MBD1_1 (chr18:46054554-46054721, HeLa rtTA-HIV-DMls cells, replicates 25, 26, 27): 28.00 and 15.00 and 9.00
PSI APP_1 (chr21:26291546-26291602, HeLa rtTA-HIV-DMls cells, replicates 25, 26, 27): 30.00 and 32.00 and 34.00
DPSI APP_1 (chr21:26291546-26291602, mean PSI 5193892 minus DMSO, n=3, P Value 0.279): 1.67%
PSI APP_1 (chr21:26294201-26294368, HeLa rtTA-HIV-DMls cells, replicates 25, 26, 27): 71.00 and 77.00 and 81.00
PSI POLDIP3_1 (chr22:41327919-41328006, HeLa rtTA-HIV-DMls cells, replicates 25, 26, 27): 68.00 and 67.00 and 64.00
DPSI POLDIP3_1 (chr22:41327919-41328006, mean PSI 5193892 minus DMSO, n=3, P Value 0.421): 2.33%
AS events with DPSI ≤ -10% [1]: 7
AS events with DPSI ≥ 10% [1]: 2
AS events with P ≤ 0.05 [1]: 18
